Results reported in patent US7311893B2, “Amyloid targeting imaging agents and uses thereof” (Neurochem (International) Limited, priority 2000, dated 2007).

System: insoluble amyloid or amyloid plaques
Experiment: binding data for amyloid-targeting moieties (FIGS. 1 and 2)
Conditions: insoluble vs soluble amyloid; data in FIGS. 1 and 2

Q: With `O=S(=O)(O)CCCNC1(CO)CCCC1` [3-(1-hydroxymethyl-1-cyclopentyl)amino-1-propane sulfonic acid] as the compound, how does the “binding to insoluble amyloid or amyloid plaques in preference to soluble amyloid” value (from here on “binding”) read?
A: bind insoluble amyloid or amyloid plaques in preference to soluble amyloid

Q: How did the “binding” value turn out when `NCCCC[C@H](NCCCS(=O)(=O)O)C(=O)O` [alpha-N-(3-sulfopropyl)-L-lysine] was run?
A: bind insoluble amyloid or amyloid plaques in preference to soluble amyloid

Q: With 1,6-hexanedisulfonate as the compound, how does the “binding” value read?
A: bind insoluble amyloid or amyloid plaques in preference to soluble amyloid

Q: `COC(=O)CCN1CCc2ccccc2C1.Cl` [methyl 2-(2-carboxyethyl)-1,2,3,4-tetrahydroisoquinoline hydrochloride] was tested. Which “binding” value did it give?
A: bind insoluble amyloid or amyloid plaques in preference to soluble amyloid

Q: How did the “binding” value turn out when `O=S(=O)(O)NCCCO` [3-hydroxypropylsulfamic acid] was run?
A: bind insoluble amyloid or amyloid plaques in preference to soluble amyloid

Q: Which “binding” value does the source give for `O=S(=O)(O)CCCNCCCCCCO` [3-(6-hydroxy-1-hexyl)amino-1-propane sulfonic acid] here?
A: bind insoluble amyloid or amyloid plaques in preference to soluble amyloid

Q: Which “binding” value does the source give for `O=S(=O)(O)CCCN1CCN(CCCS(=O)(=O)O)CC1` [1,4-piperazinebis(propanesulfonic acid)] here?
A: bind insoluble amyloid or amyloid plaques in preference to soluble amyloid

Q: For `O=S(=O)(O)CCCN1CC=CCC1` [3-[1-(1,2,3,6-tetrahydropyridinyl)]-1-propanesulfonic acid], which “binding” value is on record?
A: bind insoluble amyloid or amyloid plaques in preference to soluble amyloid

Q: For `O=S(=O)(O)CCCCN1CCCCC1` [4-(1-piperidinyl)-1-butanesulfonic acid], which “binding” value is on record?
A: bind insoluble amyloid or amyloid plaques in preference to soluble amyloid

Q: For `Cc1ccc2nc(-c3ccc(N=NNc4ccc(-c5nc6ccc(C)c(S(=O)(=O)[O-])c6s5)cc4)cc3)sc2c1S(=O)(=O)[O-].[Na+].[Na+]` [Thiazole yellow G, reference compound], which “binding” value is on record?
A: bind insoluble amyloid or amyloid plaques in preference to soluble amyloid
